Test results from US8530404B2, “Compounds and methods for treatment of cancer” (FibroGen, Inc., priority 2005, dated 2013).

Columns and labels:
[1] = Body weight in H-460 xenograft mice (Example 1); format: in vivo, mouse
Method: Sizes of the primary tumors were measured through the skin with calipers once per week. Tumor volumes were calculated by the formula V═(W^2*L)/2. Body weight of the mice in each group was also measured once per week during the experimental period. All animals were sacrificed following thirty-two days of treatment. Primary tumors were excised and weighed on an electronic balance. Blood samples were taken during terminal sacrifice and placed in microhematocrit tubes containing EDTA. Complete Blood Counts (CBC) and reticulocyte analysis were performed with the Cell Dyn 3700 analyzer (Abbott Diagnostics), as described by the manufacturer.
Thus, differences in tumor progression as measured by mean tumor volumes could not be attributed to any generalized toxicity or suppression of normal metabolism that might have been detected by changes in body weights.

BNIP3 gene expression [2] = assay: BNIP3 gene expression in MCF7 cells; format: cell-based; conditions: Homo sapiens, MCF7, read-out: fold-increase in BNIP3 mRNA expression
Method: (§1) To identify compounds useful in the methods of the present invention, the following studies were performed. The effect of compounds of the present invention on expression of various genes associated with anti-tumor activity (e.g., genes having anti-proliferative activity, genes having pro-apoptotic activity, genes having anti-tumor activity, etc.). In these experiments, the effect of compounds on BNIP3, BNIP3L, NDRG1, CDKN1C, and REDD1/RTP801 gene expression in various types of cultured tumor cells line was examined, including Hep3B cells (human hepatocellular carcinoma), Kelly neuroblastoma cells, and MCF7 cells (human breast cancer)
The effects of various compounds of the present invention on the expression of genes associated with tumor growth and progression were examined in MCF7 breast cancer cells as follows. In some experiments, MCF7 (ATCC) cells were plated in 96-well tissue culture dishes (approximately 20,000 cells per well) and cultured in DMEM media supplemented with 10% serum. The following day, the cells were washed and the media was replaced with DMEM containing 0.5% FBS. Various compounds of the present invention were added to the cultured cells to a final concentration of 20 μM, and the cells cultured for an additional 20-24 hours. DMSO (0.5%) was added to control cell cultures. RNA was isolated as described above. Changes in gene expression levels are presented as fold change compared to that of control (0.5% DMSO-treated) cultures.
In other experiments, MCF7 cells were plated in 96-well tissue culture dishes as described above. After 24 hours, the cells were washed and the media was replaced with DMEM containing 0.5% FBS. Various compounds of the present invention were added to the cultured cells to a final concentration of 20 μM. DMSO (0.5%) was added to control cell cultures. After 24 hours, changes in gene expression of BNIP3 and 18S RNA were determined directly using one-step quantitative multiplex RT-PCR reactions according to the manufacturer's instructions (QuantiTect Multiplex RT-PCR Kit, Qiagen, catalog no. 204643). Changes in gene expression levels are presented as fold change compared to that of control (0.5% DMSO-treated) cultures.

BNIP3 gene expression [3] = assay: BNIP3 gene expression in Kelly neuroblastoma cells; format: cell-based; conditions: Kelly, read-out: fold-increase in BNIP3 mRNA expression
Method: as §1
The effects of various compounds of the present invention on the expression of genes associated with tumor growth and progression were examined in Kelly neuroblastoma cells as follows. Kelly neuroblastoma cells were grown in RPMI media. For each experiment, Kelly neuroblastoma cells were added to 96-well tissue culture plates (approximately 40,000 cells per well) such that the plated cells reached confluence the following day. On the following day, the cells were washed and the media replaced with RPMI containing 0.5% FBS. Various compounds of the present invention were added to the cultured cells to a final concentration of 20 μM, and the cells cultured for an additional 20-24 hours. DMSO (0.5%) was added to control cell cultures.
RNA was isolated from the Kelly neuroblastoma cells using a commercial kit and used for the preparation of cDNA. BNIP3, CDKN1C, and 18S RNA levels were measured using commercial kits (18S, Applied Biosystems cat#4319413E); BNIP3, Applied Biosystems cat#HS00969293 MH). RNA levels for BNIP3 and CDKN1C were normalized to that of 18S RNA and is presented as fold-change compared to that observed in DMSO control cultures. Kelly cell NDRG1 and BNIP3L mRNA levels were measured by Affymetrix microarray in a separate study. Cells were harvested after 6 hours incubation with 20 μM test compound or DMSO (0.5%) as control. RNA was isolated and labeled probes were prepared and hybridized to U133 Plus 2.0 Affymetrix microarrays. Changes in gene expression levels are presented as fold change compared to that of control (0.5% DMSO-treated) cultures.

NDRG1 gene expression = assay: In vivo NDRG1 gene expression in Swiss Webster mice (quantitative PCR); conditions: Mus musculus, iv, 4 h, read-out: fold change in NDRG1 mRNA level
Method: The effects of various compounds of the present invention on the expression of genes associated with tumor growth and progression (e.g., expression of genes associated with anti-proliferative effects) were examined in vivo as follows. In these studies, male Swiss Webster mice (25 g) were administered a single intravenous (i.v.) dose of various compounds (60 mg/kg) of the present invention via the tail vein. Four hours after administration of compound, the kidneys and liver were removed and preserved in RNAlater (Ambion). RNA isolation and cDNA synthesis was carried out as follows. Murine kidney tissue was added to TRIzol (Invitrogen) and homogenized using a 5-mm stainless steel bead for 4 minutes at 25 Hz in a Mixer Mill 300 (Qiagen). Homogenates were extracted with chloroform according to the manufacturer's instructions and aqueous supernatants were isolated. The aqueous supernatants were combined with equal volumes of 70% ethanol and then loaded onto RNeasy Mini spin columns (Qiagen). RNA was isolated according to the manufacturer's instructions.
Synthesis of cDNA from the isolated total RNA was carried out using Omniscript reverse transcriptase (Qiagen) and random primers according to the manufacturer's instructions. Measurement of gene expression levels in compound-treated animals and in vehicle-treated control animals was performed by quantitative PCR using TaqMan Universal PCR Master Mix (Applied Biosystems) and TaqMan Assay-on-Demand assays (Applied Biosystems) in a Prism 7000 system instrument (Applied Biosystems), according to manufacturer's instructions. The assays used were as follows: 18S ribosomal RNA, Hs99999901_s1; BNIP3, Mm00833810_g1; BNIP3L, Mm00786306_s1; NDRG1, Mm00440447_m1. Each PCR amplification reaction included a standard curve and a water blank. Data for gene expression levels for BNIP3, BNIP3L, and NDRG1 were normalized to that of 18S ribosomal RNA within each sample. Data is presented as fold change in specific mRNA levels relative to that of non-treated control animals.

| SMILES | mean animal body weight ([1]; day 0, 20 mg/kg PO) [grams] | mean animal body weight ([1]; day 0, 60 mg/kg PO) [grams] | mean animal body weight ([1]; day 10, 20 mg/kg PO) [grams] | mean animal body weight ([1]; day 10, 60 mg/kg PO) [grams] | mean animal body weight ([1]; day 17, 20 mg/kg PO) [grams] | mean animal body weight ([1]; day 17, 60 mg/kg PO) [grams] | mean animal body weight ([1]; day 24, 20 mg/kg PO) [grams] | mean animal body weight ([1]; day 24, 60 mg/kg PO) [grams] | mean animal body weight ([1]; day 31, 20 mg/kg PO) [grams] | mean animal body weight ([1]; day 31, 60 mg/kg PO) [grams] | fold induction at 20 µM (BNIP3 gene expression [2]) | fold induction at 20 µM (BNIP3 gene expression [3]) | fold induction at 60 mg/kg (NDRG1 gene expression) | mean animal body weight ([1]; day 0, 6 mg/kg PO) [grams] | mean animal body weight ([1]; day 10, 6 mg/kg PO) [grams] | mean animal body weight ([1]; day 17, 6 mg/kg PO) [grams] | mean animal body weight ([1]; day 24, 6 mg/kg PO) [grams] | mean animal body weight ([1]; day 31, 6 mg/kg PO) [grams] |
| --- | --- | --- | --- | --- | --- | --- | --- | --- | --- | --- | --- | --- | --- | --- | --- | --- | --- | --- |
| O=C(O)CNC(=O)c1nc(Cl)c2ccccc2c1O [Compound A, [(1-Chloro-4-hydroxy-isoquinoline-3-carbonyl)-amino]-acetic acid] | 25.2 | 24.5 | 30.1 | 30.0 | 30.5 | 30.5 | 30.6 | 30.6 | 30.3 | 29.9 |  |  |  |  |  |  |  |  |
| C[C@H](NC(=O)c1ncc2cc(Oc3ccccc3)ccc2c1O)C(=O)O [Compound B, (S)-2-[(4-Hydroxy-7-phenoxy-isoquinoline-3-carbonyl)-amino]-propionic acid] | 25.7 |  | 27.8 |  | 29.0 |  | 29.3 |  | 29.3 |  | 4.5 | 17.2 | 0.9 | 26.3 | 27.9 | 29.1 | 29.3 | 29.3 |
| COc1ccc(Oc2ccc3c(O)c(C(=O)NCC(=O)O)ncc3c2)cc1 [Compound C, {[4-Hydroxy-7-(4-methoxy-phenoxy)-isoquinoline-3-carbonyl]-amino}-acetic acid] | 25.7 |  | 29.4 |  | 29.9 |  | 31.0 |  | 30.9 |  | 5 | 2.6 | 1 |  |  |  |  |  |
| Cc1nc(C(=O)NCC(=O)O)c(O)c2ccc(Oc3ccccc3)cc12 [Compound D, [(4-Hydroxy-1-methyl-7-phenoxy-isoquinoline-3-carbonyl)-amino]-acetic acid] |  |  |  |  |  |  |  |  |  |  |  | 21.9 | 3.6 |  |  |  |  |  |
| O=C(O)CNC(=O)c1ncc2cc(Oc3ccc(F)cc3)ccc2c1O [Compound E, {[7-(4-fluoro-phenoxy)-4-hydroxy-isoquinoline-3-carbonyl]-amino}-acetic acid] |  |  |  |  |  |  |  |  |  |  | 5.3 | 31.8 | 1.8 |  |  |  |  |  |
